Patent US9409952B2, “Peptide-compound cyclization method” (Chugai Seiyaku Kabushiki Kaisha, priority 2011, dated 2016)
Where two headings read alike, the source gives them in different places. Starred links: 1 amine or outer side, 2 acyl side, 3 side chain; linkers in the order of their positions; H or OH if unused. Positions of bridges follow the written chain, without caps; N, C: chain ends. Non-standard residues stand in square brackets, D forms with d. Residues, ends and D or L forms follow the SMILES beside them. *: point of attachment. Phe(4-(CH2)5CO) = O=C([C@H](Cc1ccc(CCCCCC(=O)[*:3])cc1)N[*:1])[*:2]; Phe(3-(CH2)4CO) = O=C([C@H](Cc1cccc(CCCCC(=O)[*:3])c1)N[*:1])[*:2]; NEtPhe = CCN[C@@H](Cc1ccccc1)C(=O)O; NMeF = CN[C@@H](Cc1ccccc1)C(=O)O; NMeI = CC[C@H](C)[C@H](NC)C(=O)O; NMeL = CN[C@@H](CC(C)C)C(=O)O; NMeV = CN[C@H](C(=O)O)C(C)C; NMeA = CN[C@@H](C)C(=O)O; Piperidide = C1CCN(*)CC1; Sar = CNCC(=O)O; tBu = CC(C)(C)*

How the values were obtained:
[1] = Metabolic stability in human hepatic microsome; format: in vitro ADME; conditions: microsomes
[2] = PAMPA (parallel artificial membrane permeability assay); format: in vitro ADME; conditions: for Papp at 18 hours, 50 µM: PAMPA
Method in brief: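 Artificial membrane was 10% (w/v) egg lecithin plus 0.5% (w/v) cholesterol in dodecane on a PVDF filter. A 10 mM DMSO stock was added at 0.5% (v/v) to donor buffer (50 mM MOPSO, pH 6.5, 5.0% glycocholic acid). After 18 h at 37 °C, LC/MS or LC/UV gave donor and acceptor levels for Pe.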

[3] = pH 7.4, human hepatic microsome, NADPH(+), read-out: CL NADPH(+)
[4] = membrane permeation rate (Pe), 50 mM MOPSO buffer pH 6.5 with 5.0% glycocholic acid, 37° C., 18 hours, read-out: iPAMPA Pe

Structure (SMILES) | microsomal CLint at 1 uM ([1]; human, pH 7.4, CL NADPH(+)) [µL/min/mg] | Papp at 18 hours, 50 µM ([2]; pH 6.5) [×10⁻⁶ cm/s] | microsomal CLint at 1 uM [1, 3] [µL/min/mg] | Papp at 18 hours, 50 µM [2, 4] [×10⁻⁶ cm/s] | iPAMPA Pe ([2]; membrane permeation rate (Pe), 50 mM MOPSO buffer pH 6.5 with 5.0% glycocholic acid, 37° C., 18 hours)
C=C1CCC(=O)N(C)[C@@H](Cc2ccccc2)C(=O)N(C)CC(=O)N(C)[C@@H](CC(C)C)C(=O)N[C@@H]([C@@H](C)O)C(=O)N(C)[C@@H](C)C(=O)N(C)[C@@H](CC(C)C)C(=O)N(C)[C@@H]([C@@H](C)CC)C(=O)N[C@@H](COC(C)(C)C)C(=O)N[C@H](C(=O)N2CCCCC2)Cc2cccc1c2 [DP-831] | 683 | 55 | – | – | –
C=C1CCC(=O)N(C)[C@@H](Cc2ccccc2)C(=O)N(C)[C@@H](CC(C)C)C(=O)N[C@@H]([C@@H](C)CC)C(=O)N(C)[C@@H](C)C(=O)N(C)[C@@H](Cc2ccccc2)C(=O)N[C@@H]([C@@H](C)O)C(=O)N(C)[C@@H](C)C(=O)N(C)[C@@H](CC(C)C)C(=O)N[C@H](C(=O)N2CCCCC2)Cc2cccc1c2 [DP-834] | 501 | 14 | – | – | –
CC[C@H](C)[C@@H]1NC(=O)[C@H](CC(C)C)N(C)C(=O)[C@H](Cc2ccccc2)N(C)C(=O)CCCCc2cccc(c2)C[C@@H](C(=O)N2CCCCC2)NC(=O)[C@H](CC(C)C)N(C)C(=O)[C@H](C)N(C)C(=O)[C@H]([C@@H](C)O)NC(=O)[C@H](Cc2ccccc2)N(C)C(=O)[C@H](C)N(C)C1=O [DP-836] ([NMeF][NMeL]I[NMeA][NMeF]T[NMeA][NMeL][Phe(3-(CH2)4CO)]-Piperidide; lactam N-9) | – | – | 552 | 18 | –
CC(C)C[C@H]1C(=O)N[C@@H](COC(C)(C)C)C(=O)N(C)[C@@H](CC(C)C)C(=O)N[C@H](C(=O)N2CCCCC2)Cc2cccc(c2)CCCCC(=O)N(C)[C@@H](C)C(=O)N(C)[C@@H](Cc2ccccc2)C(=O)N(C)[C@@H](CC(C)C)C(=O)N[C@@H]([C@@H](C)O)C(=O)N(C)CC(=O)N1C [DP-838] ([NMeA][NMeF][NMeL]T[Sar][NMeL]S(tBu)[NMeL][Phe(3-(CH2)4CO)]-Piperidide; lactam N-9) | – | – | 224 | 54 | –
CC[C@H](C)[C@H]1C(=O)N(C)[C@@H](CC(C)C)C(=O)N[C@H](C(=O)N2CCCCC2)Cc2cccc(c2)CCCCC(=O)N[C@@H]([C@@H](C)O)C(=O)N(C)[C@@H](C)C(=O)N(C)[C@@H](Cc2ccccc2)C(=O)N(C)[C@@H](Cc2ccccc2)C(=O)N(C)[C@@H](CC(C)C)C(=O)NCC(=O)N1C [DP-840] (T[NMeA][NMeF][NMeF][NMeL]G[NMeI][NMeL][Phe(3-(CH2)4CO)]-Piperidide; lactam N-9) | – | – | 357 | 64 | –
CC(C)C[C@H]1C(=O)N[C@H](C(=O)N2CCCCC2)Cc2cccc(c2)CCCCC(=O)N[C@@H]([C@@H](C)O)C(=O)N(C)[C@@H](C)C(=O)N(C)[C@@H](Cc2ccccc2)C(=O)NCC(=O)N(C)[C@@H](Cc2ccccc2)C(=O)N(C)[C@@H](CC(C)C)C(=O)N(C)[C@@H](CC(C)C)C(=O)N1C [DP-843] (T[NMeA][NMeF]G[NMeF][NMeL][NMeL][NMeL][Phe(3-(CH2)4CO)]-Piperidide; lactam N-9) | – | – | 505 | 31 | –
CC(C)C[C@H]1C(=O)N[C@H](C(=O)N2CCCCC2)Cc2cccc(c2)CCCCC(=O)N(C)[C@@H](Cc2ccccc2)C(=O)NCC(=O)N(C)[C@@H](Cc2ccccc2)C(=O)N(C)[C@@H](CC(C)C)C(=O)N(C)[C@@H](CC(C)C)C(=O)N1C [DP-844] ([NMeF]G[NMeF][NMeL][NMeL][NMeL][Phe(3-(CH2)4CO)]-Piperidide; lactam N-7) | 356 | 11 | – | – | –
C=C1CCC(=O)N[C@@H](C)C(=O)N(C)[C@@H](CC(C)C)C(=O)N[C@@H]([C@@H](C)CC)C(=O)N(C)[C@@H](Cc2ccccc2)C(=O)N(C)[C@@H](CC(C)C)C(=O)N(C)[C@@H](C(C)C)C(=O)N[C@@H](Cc2ccccc2)C(=O)N[C@@H]([C@@H](C)O)C(=O)N[C@H](C(=O)N2CCCCC2)Cc2cccc1c2 [DP-846] | 310 | 3.4 | – | – | –
CC[C@H](C)[C@H]1C(=O)N(C)[C@@H](CC(C)C)C(=O)N(C)[C@@H](Cc2ccccc2)C(=O)N[C@@H](CC(C)C)C(=O)N(C)[C@@H](C(C)C)C(=O)N[C@@H](Cc2ccccc2)C(=O)N[C@@H]([C@@H](C)O)C(=O)N[C@H](C(=O)N2CCCCC2)Cc2ccc(cc2)CCCCCC(=O)N[C@@H](C)C(=O)N1C [DP-847] (A[NMeI][NMeL][NMeF]L[NMeV]FT[Phe(4-(CH2)5CO)]-Piperidide; lactam N-9) | – | – | 329 | 3.3 | –
CC(C)C[C@H]1C(=O)N[C@@H](COC(C)(C)C)C(=O)N(C)[C@@H](Cc2ccccc2)C(=O)N(C)[C@@H](C)C(=O)N[C@@H](Cc2ccccc2)C(=O)N(C)[C@@H](C(C)C)C(=O)N[C@H](C(=O)N2CCCCC2)Cc2ccc(cc2)CCCCCC(=O)N[C@@H]([C@@H](C)O)C(=O)NCC(=O)N1C [DP-848] (TG[NMeL]S(tBu)[NMeF][NMeA]F[NMeV][Phe(4-(CH2)5CO)]-Piperidide; lactam N-9) | – | – | 148 | 30 | –
CC[C@H](C)[C@H]1C(=O)N[C@@H](COC(C)(C)C)C(=O)N(C)[C@@H](Cc2ccccc2)C(=O)N(C)[C@@H](C(C)C)C(=O)N[C@H](C(=O)N2CCCCC2)Cc2ccc(cc2)CCCCCC(=O)N(C)[C@@H](Cc2ccccc2)C(=O)N[C@@H](CC(C)C)C(=O)N(C)[C@@H](CC(C)C)C(=O)N[C@@H]([C@@H](C)O)C(=O)N(C)CC(=O)N1C [DP-852] ([NMeF]L[NMeL]T[Sar][NMeI]S(tBu)[NMeF][NMeV][Phe(4-(CH2)5CO)]-Piperidide; lactam N-10) | – | – | 484 | 0.7 | –
CC[C@H](C)[C@H]1C(=O)N[C@@H]([C@@H](C)O)C(=O)N(C)CC(=O)N(C)[C@@H](CC(C)C)C(=O)N[C@H](C(=O)N2CCCCC2)Cc2ccc(cc2)CCCCCC(=O)N[C@@H](CC(C)C)C(=O)N(C)[C@@H](CC(C)C)C(=O)N(C)[C@@H](Cc2ccccc2)C(=O)N[C@@H](C)C(=O)N(C)[C@@H](Cc2ccccc2)C(=O)N1C [DP-856] (L[NMeL][NMeF]A[NMeF][NMeI]T[Sar][NMeL][Phe(4-(CH2)5CO)]-Piperidide; lactam N-10) | – | – | 183 | 0.44 | –
CC(C)C[C@H]1C(=O)N(C)[C@@H](CC(C)C)C(=O)N[C@@H](C)C(=O)N(C)[C@@H](CC(C)C)C(=O)N(C)[C@@H](Cc2ccccc2)C(=O)N(C)[C@@H](Cc2ccccc2)C(=O)N[C@@H]([C@@H](C)O)C(=O)N(C)[C@@H](C)C(=O)N(C)[C@@H](CC(C)C)C(=O)N[C@H](C(=O)N2CCCCC2)Cc2ccc(cc2)CCCCCC(=O)N1C [DP-858] ([NMeL][NMeL]A[NMeL][NMeF][NMeF]T[NMeA][NMeL][Phe(4-(CH2)5CO)]-Piperidide; lactam N-10) | – | – | 77 | 1 | –
CC[C@H](C)[C@@H]1NC(=O)[C@H](Cc2ccccc2)N(C)C(=O)CCCCCc2ccc(cc2)C[C@@H](C(=O)N2CCCCC2)NC(=O)[C@H](C(C)C)N(C)C(=O)[C@H](Cc2ccccc2)N(C)C(=O)[C@H](COC(C)(C)C)NC(=O)[C@H](CC(C)C)N(C)C(=O)CN(C)C(=O)[C@H]([C@@H](C)O)NC(=O)[C@H](CC(C)C)N(C)C1=O [DP-861] ([NMeF]I[NMeL]T[Sar][NMeL]S(tBu)[NMeF][NMeV][Phe(4-(CH2)5CO)]-Piperidide; lactam N-10) | – | – | 320 | 2.9 | –
CC[C@H](C)[C@@H]1NC(=O)[C@H](CC(C)C)N(C)C(=O)CCCCc2cccc(c2)C[C@@H](C(=O)N2CCCCC2)NC(=O)[C@H](CC(C)C)N(C)C(=O)[C@H](C)N(C)C(=O)[C@H]([C@@H](C)O)NC(=O)[C@H](CC(C)C)N(C)C(=O)[C@H](COC(C)(C)C)NC(=O)[C@H](Cc2ccccc2)N(C)C(=O)[C@H](Cc2ccccc2)N(C)C1=O [DP-862] ([NMeL]I[NMeF][NMeF]S(tBu)[NMeL]T[NMeA][NMeL][Phe(3-(CH2)4CO)]-Piperidide; lactam N-10) | – | – | 118 | – | 1.0E−07
CCN1C(=O)CCCCc2cccc(c2)C[C@@H](C(=O)N2CCCCC2)NC(=O)[C@H](CC(C)C)N(C)C(=O)CN(C)C(=O)[C@H]([C@@H](C)O)NC(=O)[C@H](CC(C)C)N(C)C(=O)[C@H](Cc2ccccc2)N(C)C(=O)[C@H](C)NC(=O)[C@@H]1Cc1ccccc1 [DP-863] ([NEtPhe]A[NMeF][NMeL]T[Sar][NMeL][Phe(3-(CH2)4CO)]-Piperidide; lactam N-8) | 927 | 35 | – | – | –
C=C1CCC(=O)N[C@@H](CC(C)C)C(=O)N(C)[C@@H](CC(C)C)C(=O)N(C)[C@@H]([C@@H](C)CC)C(=O)N[C@@H](C)C(=O)N(C)[C@@H](Cc2ccccc2)C(=O)N[C@@H]([C@@H](C)O)C(=O)N(C)CC(=O)N(C)[C@@H](Cc2ccccc2)C(=O)N(C)[C@@H](CC(C)C)C(=O)N[C@H](C(=O)N2CCCCC2)Cc2ccc1cc2 [DP-864] | – | – | 171 | 2.3 | –
CC[C@H](C)[C@H]1C(=O)N[C@@H](C)C(=O)N(C)[C@@H](Cc2ccccc2)C(=O)N[C@@H]([C@@H](C)O)C(=O)N(C)[C@@H](CC(C)C)C(=O)N[C@@H](Cc2ccccc2)C(=O)N(C)[C@@H](C(C)C)C(=O)N[C@H](C(=O)N2CCCCC2)Cc2ccc(cc2)CCCCCC(=O)NCC(=O)N(C)[C@@H](CC(C)C)C(=O)N1C [DP-865] (G[NMeL][NMeI]A[NMeF]T[NMeL]F[NMeV][Phe(4-(CH2)5CO)]-Piperidide; lactam N-10) | – | – | 87 | 15 | –
